Test results from US11980607B2, “Methods of treating malignant lymphoproliferative disorders” (Actuate Therapeutics Inc., priority 2018, dated 2024).

Tests used:
SUDHL-4 cell line = experiment: Dose response of combinations (MTS viability, day 3); type: cell-based; settings: SUDHL-4, combined with 0.5 μM 9-ING-41, day 3 MTS
Description: (§1) FIGS. 2A-2O show the viability of lymphoma cells with chemotherapy agents in combination with 9-ING-41. 10,000 cells (FIGS. 1A, F, K: Daudi; FIGS. 1B, G, L: SUDHL-4; FIGS. 1C, H, M: KPUM-UH1; FIGS. 1D, I, N: Karpas 422; E, J, O: TMD8) were plated per well of a 96-well plate and treated with a dose response series of both 9-ING-41 (0-0.5 μM) and Venetoclax (0-5,000 nM) (FIGS. 1A-E) or BAY-1143572 (0-50 μM) (FIGS. 1F-J) or Idelalisib (0-50 μM) (FIGS. 1K-O) in triplicate. Viability after 3 days was analyzed using the MTS assay. Briefly, 20 μl of MTS reagent was added to cells and incubated for 2 hours and, the absorbance at 490 nm was read using a Biotek plate reader. Relative absorbance is calculated after setting the average absorbance of the no-treatment control as 1. Absorbance at OD=490 nm increases proportionally to cell density.
(§2) Daudi, SUDHL-4, KPUM-UH1, Karpas 422, or TMD8 cells were treated simultaneously with a series of concentrations of 9-ING-41 (0 μM, 0.05 μM, 0.5 μM) and either Venetoclax (0 nM, 0.5 nM, 5 nM, 50 nM, 500 nM, 5000 nM), BAY-1143572 (0 μM, 0.005 μM, 0.05 μM, 0.5 μM, 5 μM, 50 μM), or Idelalisib (0 μM, 0.005 μM, 0.05 μM, 0.5 μM, 5 μM, 50 μM). Viability at day 3 using an MTS assay was determined as described above. The background absorbance was subtracted from the A490 of the samples and the A490 of the vehicle/no-treatment control was set to 1, and the relative A490s of the rest of the samples were calculated. The IC50 was calculated as the concentration of the drug at which A490 reached 0.5. Additive effects were calculated as a fold change in the IC50 of a novel agent when combined with 0.5 μM of 9-ING-41.

KPUMUH1 cell line = experiment: as above; type: cell-based; settings: KPUMUH1, combined with 0.5 μM 9-ING-41, day 3 MTS
Description: as §1, §2

Reduction in the IC50 value on combination with 9-ING-41 (SUDHL-4 cell line) [fold] | SMILES | Reduction in the IC50 value on combination with 9-ING-41 (KPUMUH1 cell line) [fold]
8 | CC1(C)CCC(CN2CCN(c3ccc(C(=O)NS(=O)(=O)c4ccc(NCC5CCOCC5)c([N+](=O)[O-])c4)c(Oc4cnc5[nH]ccc5c4)c3)CC2)=C(c2ccc(Cl)cc2)C1 [Venetoclax] | 2
8 | COc1cc(F)ccc1-c1ncnc(Nc2cccc(C[S@](C)(=N)=O)c2)n1 [BAY-1143572] | 
